pIC50: −log10 of the molar value. Values joined by “and” are separate entries in the source; they are usually repeats but may differ in a detail not shown here. Identical values can stand only once. Like-named read-outs stand apart in the source and are kept apart here.
Assays:
[1] = test system: TNF-α; experiment: LPS stimulation of TNF production by U937 cells; format: cell-based, human; conditions: Homo sapiens, U-937, LPS-stimulated U937 cells; read-out: U937 IC50
Procedure, shortened: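 PMA-differentiated human U937 cells (20 ng/ml PMA, 24 h, then 24-48 h rest) at 2 million cells/ml, 0.1% DMSO final, stimulated with E. coli LPS (100 ng/ml final) for 4 h at 37° C. TNF-α in medium measured by ELISA; IC50 in μM.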

[2] = test system: TNF alpha; experiment: Mouse model of LPS-induced TNF alpha production; format: in vivo
Method: TNF alpha was induced in 10-12 week old BALB/c female mice by tail vein injection with 100 ng lipopolysaccharide (from S. Typhosa) in 0.2 ml saline. One hour later mice were bled from the retroorbital sinus and TNF concentrations in serum from clotted blood were quantified by ELISA.
Efficacy was determined at each time point as percent inhibition of serum TNF levels relative to LPS injected mice that received vehicle only
wherein in the dose is milligram per kilogram (mpk) administered by oral gavage and the predose time indicates the number of hours before LPS challenge when the compound is administered.

[3] = biological target: T1, human p38 kinase alpha (Homo sapiens, UniProt Q16539); experiment: p38 kinase in vitro assay, phosphorylation of biotinylated PHAS-I with gamma 32P-ATP; format: biochemical
T1 construct: The coding region of the human p38a cDNA was obtained by PCR-amplification from RNA isolated from the human monocyte cell line THP.1; GST (N); made in house; host or cells: E. coli DH10B
T1 sequence (Q16539 whole entry): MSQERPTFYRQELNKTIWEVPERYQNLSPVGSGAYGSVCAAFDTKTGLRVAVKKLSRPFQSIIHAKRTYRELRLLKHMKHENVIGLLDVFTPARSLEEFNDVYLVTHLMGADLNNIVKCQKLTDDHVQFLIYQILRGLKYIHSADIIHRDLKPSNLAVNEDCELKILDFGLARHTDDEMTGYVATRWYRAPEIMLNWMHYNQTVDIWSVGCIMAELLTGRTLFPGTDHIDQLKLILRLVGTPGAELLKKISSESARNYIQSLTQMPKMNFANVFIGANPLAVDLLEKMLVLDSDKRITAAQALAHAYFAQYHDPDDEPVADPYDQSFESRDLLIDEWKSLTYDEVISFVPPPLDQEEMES
Procedure, shortened: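 MKK6-activated human p38α phosphorylates biotinylated PHAS-I with γ-32P-ATP in 25 mM HEPES pH 7.5, 10 mM Mg acetate, 50 μM unlabeled ATP, 1% DMSO, 30 °C for 1 h or overnight. Compounds at 100–0.001 μM (10-fold steps, triplicate); substrate captured on streptavidin filter plates and counted by scintillation.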

[4] = test system: human TNF; experiment: TNF inhibition: human whole blood assay; format: cell-based; conditions: Homo sapiens, LPS, read-out: TNF Inhibition-Human Whole Blood Assay
[5] = test system: TNF-α; experiment: Rat assay: LPS-challenged rats, serum TNF-α by ELISA; format: in vivo; conditions: Rattus norvegicus, po; for inhibition in vivo at 1 mg/kg: Table 10, dose 1.0 mg/kg; for inhibition in vivo at 1 mg/kg / inhibition in vivo at 5 mg/kg / inhibition in vivo at 3 mg/kg: read-out: Rat LPS Assay % Inhibition; for inhibition in vivo at 5 mg/kg: Table 10, dose 5.0 mg/kg; for inhibition in vivo at 20 mg/kg: Table 10, dose 20.0 mg/kg; for inhibition in vivo at 3 mg/kg: Table 8, dose 3.0 mg/kg
[6] = biological target: T2, human GST-p38 kinase alpha (Homo sapiens, UniProt Q16539); experiment: p38 kinase in vitro assay, second format, phosphorylation of EGFRP with 33P-ATP; format: biochemical; conditions: read-out: p38α Kinase Assay IC50
T2 construct: The coding region of the human p38a cDNA was obtained by PCR-amplification from RNA isolated from the human monocyte cell line THP.1; made in house; host or cells: E. coli DH10B
T2 sequence (Q16539 whole entry): as above
Procedure, shortened: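 Activated human GST-p38α (pre-activated with GST-MKK6, 1 h, 30 °C) phosphorylates EGFR 21-mer peptide (200 μM) with 50 μM ATP plus γ-33P-ATP, pH 7.5, 60 min at room temperature. Unreacted ATP removed by AG 1×8 resin; supernatant scintillation-counted.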

[7] = mouse, oral, 1h before LPS, 30 mpk, read-out: mLPS 1h, 30 mpk percent inhibition

Structure (SMILES) | pIC50 ([4]; Table 10, human whole blood) | inhibition in vivo at 5 mg/kg [5] | inhibition in vivo at 20 mg/kg [5] | pIC50 ([6]; Table 10, 10% DMSO, @ 1.0 hour) | melting point | further results
CN(C)CCNc1cc(-c2c[nH]nc2-c2ccc(F)cc2)ccn1 [Example A-264, N′-[4-[3-(4-fluorophenyl)-1H-pyrazol-4-yl]-2-pyridinyl]-N,N-dimethyl-1,2-ethanediamine] | – | – | – | – | – | pIC50 [1]: 6.59; inhibition in vivo at 30 mg/kg [2, 7]: 61%
OCCn1cc(-c2ccncc2)c(-c2ccc(F)cc2)n1 [Example A-210, 3-(4-fluorophenyl)-4-(4-pyridinyl)-1H-pyrazole-1-ethanol] | – | – | – | – | – | pIC50 [1]: 6.70; inhibition in vivo at 30 mg/kg [2, 7]: 93%; pIC50 ([3]; p38α in vitro, PHAS-I assay procedure, read-out: p38^1 IC50): 6.80
Cn1cc(-c2ccncc2)c(-c2cccc(F)c2)n1 [Example A-229, 4-[3-(3-fluorophenyl)-1-methyl-1H-pyrazol-4-yl]pyridine] | – | – | – | – | – | pIC50 [1]: 6.34; inhibition in vivo at 30 mg/kg [2, 7]: 91%
CSc1[nH]nc(-c2ccc(Cl)cc2)c1-c1ccncc1 [Example A-435] | < 4.60 | 0% | 14% | 6.46 | 250.2 °C | inhibition in vivo at 1 mg/kg [5]: 10%
COc1ccccc1Nc1nccc(-c2cn[nH]c2-c2ccc(F)cc2)n1 [Example A-326, 4-[3-(4-fluorophenyl)-1H-pyrazol-4-yl]-N-(2-methoxyphenyl)-2-pyrimidinamine] | – | – | – | – | 265 °C (dec.) | pIC50 ([4]; Table 8, human whole blood): < 4.60; inhibition in vivo at 10 mg/kg ([5]; Table 8, dose 10.0 mg/kg): 0%; pIC50 ([6]; Table 8, 10% DMSO): 6.01
CC(Oc1ccccc1)C(=O)NCc1[nH]nc(-c2ccc(F)cc2)c1-c1ccncc1 (centres unmarked) [Example B-0087] | – | – | – | – | – | inhibition in vivo at 30 mg/kg ([2]; Mus musculus, 30 mpk oral gavage, -6h before LPS, read-out: Mouse LPS Model % TNF inhib @ dose @ predose time): 38%; pIC50 ([3]; read-out: P38 alpha kinase IC50): 6.26
COCCSc1[nH]nc(-c2ccc(Cl)cc2)c1-c1ccncc1 [Example A-469, 3-(4-chlorophenyl)-5-[(2-methoxyethyl)-thio]-4pyridin-4-yl-pyrazole] | 5.14 | 51% | 68% | 7.02 | 189.2 to 190.2 °C | –
CN1CCN(c2[nH]nc(-c3ccc(Br)cc3)c2-c2ccncc2)CC1 [Example A-439] | 5.25 | 58% | 93% | 6.82 | 270.2 to 270.7 °C | –
[O-][S+](c1[nH]nc(-c2ccc(Cl)cc2)c1-c1ccncc1)C1CCNCC1 (centres unmarked) [Example A-482] | 6.16 | – | 15% | 5.79 | 189.1 to 190.8 °C | –
Clc1ccc(-c2n[nH]c(N3CCN(C4CC4)CC3)c2-c2ccncc2)cc1 [Example A-322, 1-[5-(4-chlorophenyl)-4-(4-pyridinyl)-1H-pyrazol-3-yl)-4-cyclopropylpiperazine] | – | – | – | – | 264 to 265 °C | pIC50 ([4]; Table 8, human whole blood): 5.38; inhibition in vivo at 3 mg/kg [5]: 51.5%; pIC50 ([6]; Table 8, 10% DMSO): 6.82 and 6.60
Fc1ccc(-c2[nH]ncc2-c2ccnc(Nc3ccccc3F)n2)cc1 [Example A-325, N-(2-fluorophenyl)-4-[3-(4-fluorophenyl)-1H-pyrazol-4-yl]-2-pyrimidinamine] | – | – | – | – | 239 to 240 °C | pIC50 ([4]; Table 8, human whole blood): 7.24; inhibition in vivo at 3 mg/kg [5]: 25%; inhibition in vivo at 30 mg/kg ([5]; Table 8, dose 30.0 mg/kg): 11%; pIC50 ([6]; Table 8, 10% DMSO): > 7.00
Cc1cc(-c2n[nH]c(N3CCN(C)CC3)c2-c2ccncc2)ccc1Cl [Example A-407, 1-[5-(3-methyl-4-chlorophenyl)-4-(4-pyridinyl)-1H-pyrazol-3-yl]-4-methylpiperazine] | 5.41 | 21% | 82% | 6.74 | 236.7 to 239.3 °C | –
CN1CCN(c2[nH]nc(-c3ccc(C(C)(C)C)cc3)c2-c2ccncc2)CC1 [Example A-414, 1-[5-(4-tert-butylphenyl)-4-(4-pyridinyl)-1H-pyrazol-3-yl]-4-methylpiperazine] | 4.95 | 3% | 14% | 5.02 | 243.6 to 244.3 °C | –
Clc1ccc(-c2n[nH]c(SCC3OCCO3)c2-c2ccncc2)cc1 [Example A-473] | 6.25 | – | 58% | 6.77 | 197 to 198.2 °C | –
Fc1ccc(-c2n[nH]cc2-c2ccnc(NCCN3CCOCC3)c2)cc1 [Example A-266, N-[4-[3-(4-fluorophenyl)-1H-pyrazol-4-yl)-2-pyridinyl]-4-morpholineethanamine] | – | – | – | – | – | pIC50 [1]: 6.27; inhibition in vivo at 30 mg/kg [2, 7]: 0%
CN1CCN(c2[nH]nc(-c3cccc(Br)c3)c2-c2ccncc2)CC1 [Example A-409, 1-[5-(3-bromophenyl)-4-(4-pyridinyl)-1H-pyrazol-3-yl]-4-methylpiperazine] | 5.28 | 41% | 89% | 6.68 | 222.5 to 223.4 °C | –
C#CCNC(=O)Cn1nc(-c2ccc(F)cc2)c(-c2ccncc2)c1C [Example B-2310] | – | – | – | – | – | Mouse LPS Model % TNF inhib @ dose @ predose time ([2]; 30 mpk oral gavage): 50% @ 30 mpk @ -6h
Fc1ccc(-c2nn(CCN3CCOCC3)cc2-c2ccnc(F)c2)cc1 [Example A-269, 4-[2-[3-(4-fluorophenyl)-4-(2-fluoro-4-pyridinyl)-1H-pyrazol-1-yl]ethyl]morpholine] | – | – | – | – | – | pIC50 [1]: < 5.00; inhibition in vivo at 30 mg/kg [2, 7]: 51%
N#CCSc1[nH]nc(-c2ccc(Cl)cc2)c1-c1ccncc1 [Example A-456] | 6.01 | 48% | 53% | 6.92 | 230 to 230.5 °C | inhibition in vivo at 1 mg/kg [5]: 36%
CC(C)(C)OC(=O)N1CCC(Oc2[nH]nc(-c3ccc(Cl)cc3)c2-c2ccncc2)CC1 [Example A-441] | < 4.60 | 14% | 62% | 5.92 | 230.1 to 231.8 °C | –
O=C(CSc1[nH]nc(-c2ccc(Cl)cc2)c1-c1ccncc1)N1CCOCC1 [Example A-476] | 6.01 | – | 35% | 6.00 | 215.4 to 215.5 °C | –
CN1CCN(c2n[nH]c(-c3ccc(I)cc3)c2-c2ccncc2)CC1 [Example A-417, 1-[5-(4-iodophenyl)-4-(4-pyridinyl)-1H-pyrazol-3-yl]-4-methylpiperazine] | 4.92 | 40% | 70% | 6.72 | 265.2 to 265.8 °C | –
Clc1ccc(-c2n[nH]c(SC3CCNCC3)c2-c2ccncc2)cc1 [Example A-459] | 6.59 | 54% | 80% | 7.57 | 211.1 to 211.2 °C | inhibition in vivo at 1 mg/kg [5]: 0%
